{"source": "patent US12310963B2", "about": "“Pyrazole derivatives and use thereof” (Tarapeutics Science Inc., priority 2019, dated 2025)", "key": {"[1]": {"target": "T1, BaF3-FL-BRAF-V600E (stably expressing BRAF-V600E kinase) (Homo sapiens, UniProt P15056, V600E)", "T1 construct": "human BCR-ABL (P210 or P210/T315I mutated), full-length BRAF-V600E; expressed in transfected cells; host or cells: mouse BaF3, retroviral MSCV-Puro", "T1 sequence (P15056 whole entry V600E)": "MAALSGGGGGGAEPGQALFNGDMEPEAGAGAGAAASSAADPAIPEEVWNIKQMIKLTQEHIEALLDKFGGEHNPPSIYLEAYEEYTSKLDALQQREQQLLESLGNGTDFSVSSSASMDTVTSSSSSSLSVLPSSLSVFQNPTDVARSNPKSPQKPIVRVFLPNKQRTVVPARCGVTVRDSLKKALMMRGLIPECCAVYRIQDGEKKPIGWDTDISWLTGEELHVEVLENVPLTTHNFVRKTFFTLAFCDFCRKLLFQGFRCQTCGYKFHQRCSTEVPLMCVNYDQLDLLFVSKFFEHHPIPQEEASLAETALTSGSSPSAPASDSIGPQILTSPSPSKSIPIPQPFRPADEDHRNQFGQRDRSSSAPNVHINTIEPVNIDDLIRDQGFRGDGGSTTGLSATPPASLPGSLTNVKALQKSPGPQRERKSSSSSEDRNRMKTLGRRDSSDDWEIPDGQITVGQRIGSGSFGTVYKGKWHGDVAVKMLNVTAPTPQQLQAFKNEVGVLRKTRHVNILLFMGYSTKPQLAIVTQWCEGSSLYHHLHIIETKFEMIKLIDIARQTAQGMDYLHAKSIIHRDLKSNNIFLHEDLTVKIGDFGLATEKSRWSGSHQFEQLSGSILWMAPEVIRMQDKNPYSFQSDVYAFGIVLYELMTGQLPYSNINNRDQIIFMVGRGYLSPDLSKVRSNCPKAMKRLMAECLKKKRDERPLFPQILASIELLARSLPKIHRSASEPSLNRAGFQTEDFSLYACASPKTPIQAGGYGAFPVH", "assay": "Growth of BaF3-FL-BRAF-V600E cells, Cell Titer-Glo, 72 h", "type": "cell-based, mouse", "excerpt": "(§1) In this example, mouse primary B cell BaF3 (purchased from ATCC, U.S.A.) was used. In addition, in this example, mouse BaF3-tel-PDGFRα (stably expressing PDGFRα kinase), mouse BaF3-tel-PDGFRβ (stably expressing PDGFRβ kinase), BaF3-P210 (stably expressing ABL kinase), BaF3-P210-T315I (stably expressing ABL-T315I kinase), BaF3-FL-BRAF-V600E (stably expressing BRAF-V600E kinase), BaF3-TEL-cKIT (stably expressing cKIT kinase), BaF3-TEL-VEGFR2 (stably expressing VEGFR2 kinase), BaF3-TEL-FGFR2 (stably expressing FGFR2 kinase) were also used. The above-mentioned cell trains were all constructed in our laboratory by the method as follows. The sequences of human BCR-ABL (P210 or P210/T315I mutated), full-length BRAF-V600E, cKIT, VEGFR2, FGFR2, PDGFRα, PDGFRβ kinase region were amplified respectively via PCR, and inserted respectively into a MSCV-Puro vector (purchased from Clontech) having a N-terminal TEL fragment and/or NPM fragment and/or TPR fragment, and stably transferred into mouse BaF3 cells by the retroviral method, and the growth factor IL-3 was removed. Eventually, cell lines which are transferred into proteins depending on PDGFRα, PDGFRβ were obtained.\n(§2) In this example, solutions of the test compound at different concentrations (0.000508 μM, 0.00152 μM, 0.00457 μM, 0.0137 μM, 0.0411 μM, 0.123 μM, 0.370 μM, 1.11 μM, 3.33 μM, 10 μM) were added to the above cells. […]"}, "[2]": {"tested_on": "human chronic eosinophilic leukemia cells EOL-1 (expressing PDGFRα)", "assay": "Mouse tumor model of human chronic eosinophilic leukemia cells EOL-1", "type": "in vivo", "description": "• 1) Bal b/c female mice, 4-6 weeks old, were purchased from Shanghai SLAC Laboratory Animal Co., Ltd., and were raised in an SPF laboratory; the drinking water and the bedding were both sterilized by autoclaving; and all the operations involving the mice were performed under aseptic conditions; • 2) On Day 0, 1×10^7 human chronic eosinophilic leukemia cells EOL-1 (expressing PDGFRα) (purchased from ATCC) were injected subcutaneously into the left flank of each of the mice; • 3) On Day 15, the mice were randomly divided into four groups with five mice per group, and were administered respectively for 14 days. […] The tumor volume was calculated as length×width×width/2 mm^3."}, "[3]": {"tested_on": "BaF3-tel-PDGFRα (stably expressing PDGFRα kinase)", "assay": "Growth of BaF3-tel-PDGFRα cells, Cell Titer-Glo, 72 h", "type": "cell-based, mouse", "excerpt": "as §1\nIn this example, solutions of the test compound at different concentrations (0.000508 μM, 0.00152 μM, 0.00457 μM, 0.0137 μM, 0.0411 μM, 0.123 μM, 0.370 μM, 1.11 μM, 3.33 μM, 10 μM) were added to the above cells. The cells were incubated for 72 hours."}, "[4]": {"tested_on": "BaF3-TEL-FGFR2 (stably expressing FGFR2 kinase)", "assay": "Growth of BaF3-TEL-FGFR2 cells, Cell Titer-Glo, 72 h", "type": "cell-based, mouse", "excerpt": "as §1, §2"}, "[5]": {"tested_on": "BaF3-P210 (stably expressing ABL kinase; BCR-ABL P210)", "assay": "Growth of BaF3-P210 cells, Cell Titer-Glo, 72 h", "type": "cell-based, mouse", "excerpt": "as §1, §2"}, "[6]": {"tested_on": "BaF3-P210-T315I (stably expressing ABL-T315I kinase)", "assay": "Growth of BaF3-P210-T315I cells, Cell Titer-Glo, 72 h", "type": "cell-based, mouse", "excerpt": "as §1, §2"}}}
{"compound": "Cc1ccc(NC(=O)c2cccc(C(F)(F)F)n2)cc1-n1cc(-c2cncc(N3CCN(C)CC3)c2)cn1", "note": "[Compound 1, N-(4-methyl-3-(4-(5-(4-methylpiperazin-1-yl)pyridin-3-yl)-1H-pyrazol-1-yl)phenyl)-6-(trifluoromethyl)picolinamide]", "values": [{"measurement": "GI50", "setting": "[1]; BaF3-FL-BRAF-V600E cells, 72 hours", "result": 4.7, "unit": "µM"}, {"measurement": "inhibitory effect against BRAF-V600E (in words)", "setting": "[1]; summary of Table 2", "result": "no inhibitory effect, or a relatively weak inhibitory effect"}, {"measurement": "tumor growth inhibitory rate (TGI)", "setting": "[2]; 5 mg/kg, 14 days after administration, by tumor weight vs control group, FIG. 1c", "result": 96, "unit": "%"}, {"measurement": "effect on tumor size (in words)", "setting": "[2]; 5 mg/kg, FIG. 1b", "result": "excellent effect in inhibiting the tumor"}, {"measurement": "effect on the body weight of the mouse (in words)", "setting": "[2]; EOL-1 mouse model, 14 days administration, FIG. 1a", "result": "little effect on the body weight"}, {"measurement": "GI50", "setting": "[3]", "result": 0.056, "unit": "µM"}, {"measurement": "GI50", "setting": "[4]; BaF3-TEL-FGFR2 cells, 72 hours", "result": 3.26, "unit": "µM"}, {"measurement": "inhibitory effect against FGFR2 (in words)", "setting": "[4]; summary of Table 2", "result": "no inhibitory effect, or a relatively weak inhibitory effect"}, {"measurement": "GI50", "setting": "[5]; BaF3-P210 cells, 72 hours", "result": "> 10", "unit": "µM"}, {"measurement": "inhibitory effect against ABL (in words)", "setting": "[5]; summary of Table 2", "result": "no inhibitory effect, or a relatively weak inhibitory effect"}, {"measurement": "GI50", "setting": "[6]; BaF3-P210-T315I cells, 72 hours", "result": 5.16, "unit": "µM"}, {"measurement": "inhibitory effect against ABL-T315I (in words)", "setting": "[6]; summary of Table 2", "result": "no inhibitory effect, or a relatively weak inhibitory effect"}]}
